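Briefly, cells in 96-well plates were exposed to five compound concentrations for 48 h, and endpoints were estimated by linear interpolation. TGI: total growth inhibition.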
Legend:
Test in all cases: growth of human tumour cells (NCI), 48 h
RPMI-8226 leukemia = tested on: RPMI-8226 leukemia
SK-MEL-28 melanoma = tested on: SK-MEL-28 melanoma
HL-60(TB) leukemia = tested on: HL-60(TB) leukemia
SF-268 CNS = tested on: SF-268 CNS
HCT-15 colon = tested on: HCT-15 colon
KM12 colon = tested on: KM12 colon
MOLT-4 leukemia = tested on: MOLT-4 leukemia
DLD-1 colon = tested on: DLD-1 colon
DMS 273 small cell lung = tested on: DMS 273 small cell lung
OVCAR-8 ovarian = tested on: OVCAR-8 ovarian
KM20L2 colon = tested on: KM20L2 colon
SNB-78 CNS = tested on: SNB-78 CNS
A498 renal = tested on: A498 renal
MALME-3M melanoma = tested on: MALME-3M melanoma
LXFL 529 NSCLC = tested on: LXFL 529 NSCLC
NCI-H460 lung = tested on: NCI-H460 lung
HOP-62 NSCLC = tested on: HOP-62 NSCLC
HOP-18 NSCLC = tested on: HOP-18 NSCLC
EKVX NSCLC = tested on: EKVX NSCLC
UO-31 renal = tested on: UO-31 renal
UACC-257 melanoma = tested on: UACC-257 melanoma
HOP-92 NSCLC = tested on: HOP-92 NSCLC
XF 498 CNS = tested on: XF 498 CNS
RXF 393 renal = tested on: RXF 393 renal
SK-MEL-5 melanoma = tested on: SK-MEL-5 melanoma
ACHN renal = tested on: ACHN renal
SNB-75 CNS = tested on: SNB-75 CNS
DMS 114 small cell lung = tested on: DMS 114 small cell lung
U251 CNS = tested on: U251 CNS
CAKI-1 renal = tested on: CAKI-1 renal
SK-MEL-2 melanoma = tested on: SK-MEL-2 melanoma
A549 NSCLC = tested on: A549 NSCLC
SW-620 colon = tested on: SW-620 colon
OVCAR-3 ovarian = tested on: OVCAR-3 ovarian
IGROV1 ovarian = tested on: IGROV1 ovarian
SNB-19 CNS = tested on: SNB-19 CNS
NCI-H226 lung = tested on: NCI-H226 lung
HCC-2998 colon = tested on: HCC-2998 colon
TK-10 renal = tested on: TK-10 renal
M14 melanoma = tested on: M14 melanoma
786-0 renal = tested on: 786-0 renal
CCRF-CEM leukemia = tested on: CCRF-CEM leukemia
UACC-62 melanoma = tested on: UACC-62 melanoma
NCI-H23 lung = tested on: NCI-H23 lung
M19-MEL melanoma = tested on: M19-MEL melanoma
HT29 colon = tested on: HT29 colon
SN12C renal = tested on: SN12C renal
NCI-H522 lung = tested on: NCI-H522 lung
COLO 205 colon = tested on: COLO 205 colon
SK-OV-3 ovarian = tested on: SK-OV-3 ovarian
SF-295 CNS = tested on: SF-295 CNS
SF-539 CNS = tested on: SF-539 CNS
K-562 leukemia = tested on: K-562 leukemia
RXF-631 renal = tested on: RXF-631 renal
OVCAR-5 ovarian = tested on: OVCAR-5 ovarian
LOX IMVI melanoma = tested on: LOX IMVI melanoma
OVCAR-4 ovarian = tested on: OVCAR-4 ovarian
SR leukemia = tested on: SR leukemia
HCT-116 colon = tested on: HCT-116 colon

COc1cccc2c1C(=O)c1c(O)c3c(c(O)c1C2=O)CC(O)(C(C)=O)CC3OC1CC([N+](C)(C)C)C(O)C(C)O1 (centres undefined) was tested, and the TGI (RPMI-8226 leukemia) was > 100 µM, the TGI (SK-MEL-28 melanoma) was > 100 µM and the TGI (HL-60(TB) leukemia) was > 100 µM. For the same compound, the TGI (SF-268 CNS) was > 100 µM, the TGI (HCT-15 colon) was > 100 µM and the TGI (KM12 colon) was > 100 µM. For the same compound, the TGI (MOLT-4 leukemia) was 56.1 µM, the TGI (DLD-1 colon) was > 100 µM and the TGI (DMS 273 small cell lung) was > 100 µM. For the same compound, the TGI (OVCAR-8 ovarian) was > 100 µM, the TGI (KM20L2 colon) was > 100 µM and the TGI (SNB-78 CNS) was > 100 µM. The TGI (A498 renal) was > 100 µM, the TGI (MALME-3M melanoma) was > 100 µM and the TGI (LXFL 529 NSCLC) was > 100 µM. The TGI (NCI-H460 lung) was > 100 µM, the TGI (HOP-62 NSCLC) was > 100 µM and the TGI (HOP-18 NSCLC) was > 100 µM. The TGI (EKVX NSCLC) was > 100 µM, the TGI (UO-31 renal) was > 100 µM and the TGI (UACC-257 melanoma) was > 100 µM. For the same compound, the TGI (HOP-92 NSCLC) was > 100 µM, the TGI (XF 498 CNS) was 92.2 µM and the TGI (RXF 393 renal) was > 100 µM. For the same compound, the TGI (SK-MEL-5 melanoma) was > 100 µM, the TGI (ACHN renal) was > 100 µM and the TGI (SNB-75 CNS) was > 100 µM. The TGI (DMS 114 small cell lung) was > 100 µM, the TGI (U251 CNS) was > 100 µM and the TGI (CAKI-1 renal) was > 100 µM. The TGI (SK-MEL-2 melanoma) was > 100 µM, the TGI (A549 NSCLC) was > 100 µM and the TGI (SW-620 colon) was > 100 µM. The TGI (OVCAR-3 ovarian) was > 100 µM, the TGI (IGROV1 ovarian) was > 100 µM and the TGI (SNB-19 CNS) was > 100 µM. For the same compound, the TGI (NCI-H226 lung) was > 100 µM, the TGI (HCC-2998 colon) was > 100 µM and the TGI (TK-10 renal) was > 100 µM. The TGI (M14 melanoma) was > 100 µM, the TGI (786-0 renal) was > 100 µM and the TGI (CCRF-CEM leukemia) was > 100 µM. The TGI (UACC-62 melanoma) was > 100 µM, the TGI (NCI-H23 lung) was > 100 µM and the TGI (M19-MEL melanoma) was > 100 µM. For the same compound, the TGI (HT29 colon) was > 100 µM, the TGI (SN12C renal) was > 100 µM and the TGI (NCI-H522 lung) was > 100 µM. The TGI (COLO 205 colon) was > 100 µM, the TGI (SK-OV-3 ovarian) was > 100 µM and the TGI (SF-295 CNS) was > 100 µM. For the same compound, the TGI (SF-539 CNS) was > 100 µM, the TGI (K-562 leukemia) was > 100 µM and the TGI (RXF-631 renal) was > 100 µM. For the same compound, the TGI (OVCAR-5 ovarian) was > 100 µM, the TGI (LOX IMVI melanoma) was > 100 µM and the TGI (OVCAR-4 ovarian) was > 100 µM. For the same compound, the TGI (SR leukemia) was > 100 µM and the TGI (HCT-116 colon) was > 100 µM.
In the case of COC(=O)C(=O)C(C(=O)C(=O)Nc1ccc([N+](=O)[O-])cc1[N+](=O)[O-])c1nc2ccc([N+](=O)[O-])cc2[nH]c1=O (centres undefined), the TGI (RPMI-8226 leukemia) is reported as > 100 µM, the TGI (HL-60(TB) leukemia) is reported as > 100 µM and the TGI (SF-268 CNS) is reported as > 100 µM. For the same compound, the TGI (HCT-15 colon) was > 100 µM, the TGI (KM12 colon) was > 100 µM and the TGI (MOLT-4 leukemia) was > 100 µM. The TGI (DLD-1 colon) was > 100 µM, the TGI (DMS 273 small cell lung) was > 100 µM and the TGI (OVCAR-8 ovarian) was > 100 µM. The TGI (KM20L2 colon) was > 100 µM, the TGI (SNB-78 CNS) was > 100 µM and the TGI (A498 renal) was > 100 µM. For the same compound, the TGI (MALME-3M melanoma) was > 100 µM, the TGI (LXFL 529 NSCLC) was > 100 µM and the TGI (NCI-H460 lung) was > 100 µM. The TGI (HOP-62 NSCLC) was > 100 µM, the TGI (HOP-18 NSCLC) was > 100 µM and the TGI (EKVX NSCLC) was > 100 µM. For the same compound, the TGI (UO-31 renal) was > 100 µM, the TGI (UACC-257 melanoma) was > 100 µM and the TGI (HOP-92 NSCLC) was > 100 µM. The TGI (XF 498 CNS) was > 100 µM, the TGI (RXF 393 renal) was > 100 µM and the TGI (ACHN renal) was > 100 µM. The TGI (SNB-75 CNS) was 84.9 µM, the TGI (DMS 114 small cell lung) was > 100 µM and the TGI (U251 CNS) was > 100 µM. For the same compound, the TGI (CAKI-1 renal) was > 100 µM, the TGI (A549 NSCLC) was > 100 µM and the TGI (SW-620 colon) was > 100 µM. For the same compound, the TGI (OVCAR-3 ovarian) was > 100 µM, the TGI (IGROV1 ovarian) was > 100 µM and the TGI (SNB-19 CNS) was > 100 µM. The TGI (NCI-H226 lung) was > 100 µM, the TGI (HCC-2998 colon) was > 100 µM and the TGI (TK-10 renal) was > 100 µM. For the same compound, the TGI (M14 melanoma) was > 100 µM, the TGI (786-0 renal) was > 100 µM and the TGI (CCRF-CEM leukemia) was > 100 µM. The TGI (UACC-62 melanoma) was > 100 µM, the TGI (NCI-H23 lung) was > 100 µM and the TGI (M19-MEL melanoma) was > 100 µM. The TGI (HT29 colon) was > 100 µM, the TGI (SN12C renal) was > 100 µM and the TGI (NCI-H522 lung) was > 100 µM. For the same compound, the TGI (COLO 205 colon) was > 100 µM, the TGI (SK-OV-3 ovarian) was > 100 µM and the TGI (SF-295 CNS) was > 100 µM. The TGI (K-562 leukemia) was > 100 µM, the TGI (RXF-631 renal) was > 100 µM and the TGI (OVCAR-5 ovarian) was > 100 µM. The TGI (LOX IMVI melanoma) was > 100 µM, the TGI (OVCAR-4 ovarian) was > 100 µM and the TGI (SR leukemia) was > 100 µM. The TGI (HCT-116 colon) was > 100 µM.
